Experimental findings from US10329258B2, “CGAS in systemic lupus erythematosus (SLE)” (UNIVERSITY OF WASHINGTON, priority 2015, dated 2019) are described below.

One data set has as its target T1, dsDNA/cGAS complex (Homo sapiens, UniProt Q8N884).
T1 construct: made in house; host or cells: E. coli Rosetta BL21 pLysS
The data set is described as follows: Electrophoretic mobility shift assay (EMSA) of dsDNA (ISD) binding to cGAS. The settings on record: 0.2 μM ISD, 1.5 μM cGAS, HCQ 0.075~5 mM. From the text:
To determine whether these anti-malarial drugs could inhibit DNA binding to cGAS in vitro, we performed DNA binding studies by the electrophoretic mobility shift assay (EMSA). As previously shown, addition of increasing concentrations of cGAS to a constant concentration of ds DNA (ISD), results in the protein retarding migration of ISD on the gel (‘gel shift’) and less free DNA (FIG. 1, left panel). To test whether HCQ as a model antimalarial could attenuate the gel shift, we used constant concentrations of both ISD and cGAS (FIG. 1, right panel) in the presence of increasing concentrations of HCQ. As shown, increasing the concentration of HCQ reduced the gel shift caused by the formation of dsDNA/cGAS complexes and led to increasing free DNA at the bottom of the gel. […] Inhibition of formation of dsDNA/cGAS higher order complexes by antimalarial drugs are especially interesting and important since cGAS is activated by dsDNA induced oligomerization and dsDNA/cGAS complex formation is required for cGAS activation.
Electrophoretic mobility shift assay (EMSAs) were performed to measure the DNA-binding ability with or without HCQ in vitro. […] The mixtures were resolved on 1% agarose gel using 1×TBE electrophoresis buffer of at constant voltage of 100 V. The gel was analyzed by using a fluorescence-based EMSA kit (Molecular Probes) according to the manufacturer's protocol. […]
(Mobility shift assays separate free from complexed probe on a gel.)

Another data set has as its target STING (Homo sapiens, UniProt Q86WV6). The data set is described as follows: Binding of 32P-c-di-AMP by STING in the presence of HCQ. Particulars: 32P-c-di-AMP (2 nM), STING (170 μM), different HCQ concentrations.
Data set [1] has as its system IFNb production by THP1 cells. Description: IFNb expression by QPCR in THP1 cells transfected with herring testis DNA. It is filed as cell-based. The settings on record: for IC50: Homo sapiens, read-out: IC50 of inhibition of IFNb production by THP1 cells; for inhibition of IFNb production, effectiveness in words: THP1 cells transfected with DNA, compared with Quinacrine, AMCA, HCQ, Chloroquine. The source says:
Systemic Lupus Erythematosus (SLE) is strongly associated with increased expression of type I interferon (IFN-I) (Elkon, 2012). Both genetic as well as experimental studies indicate that IFN-I plays a central role in this disease (Lovgren, 2006) (Niewold, 2007). To determine the physiological relevance of our computational analysis and in vitro observance, we examined whether antimalarial drugs could inhibit IFNb production within the cell. […] Using this approach, we transfected THP1 cells with DNA in the presence or absence of antimalarial compounds and quantified IFNb expression by QPCR.
THP1 cells (0.2×10^6) were transfected with 0.5 ug herring testis DNA using Lipofectamine 2000 (Invitrogen) according to the manufacture's instruction. Before transfection, THP1 cells were incubated with different concentration of Hydroxychloroquine or other antimalarial drugs (100, 50, 25, 12.5 μM) for 5 minutes. Cells were stimulated for 16 hours and then harvested for RNA extraction.
Total RNA was isolated from THP1 cells using the RNeasy mini kit (Qiagen, Valencia, Calif.). cDNA was synthesized using 100 ng RNA with the high-capacity cDNA RT-KIT™ using random primers (Applied Biosystems, Foster City, Calif.). Reactions in duplicate were run on an ABI STEPONE PLUS™ using the primers from Qiagen (primer catalog number): a two-stage cycle of 95° C. for 15 s and 60° C. for 1 min was repeated for 40 cycles followed by a dissociation stage. Threshold cycle values were set as a constant threshold at 0.2, and fold changes in gene expression were then calculated using the 2^−ΔΔ^CT method.

Another data set deals with THP1 cells. The data set is described as follows: PolyIC Lipofectamine transfection of THP1 cells, IL-1b by ELISA. It is filed as cell-based. Particulars: PolyIC transfected THP1 cells, different concentration of HCQ. The source says: PolyIC was transfected by Lipofectamine to THP1 cells with different concentration of HCQ.
(In general: In an ELISA, binding on a coated surface is turned into a signal by an enzyme label.)

A further data set addresses T2, cGAS (Homo sapiens, UniProt Q8N884).
T2 construct: made in house; host or cells: E. coli Rosetta BL21 pLysS
The data set is described as follows: cGAS activity assay: cGAMP production quantified by TLC (IC50 Enzyme Assay). It is filed as biochemical. The settings on record: for inhibitory activity on cGAMP production, in words: TLC, FIG. 2C. The protocol:
HCQ belongs to a family of antimalarial drugs that share the structure of aminoquinolines. To rapidly screen these antimalarial drugs for their ability to interfere with cGAS activation by ds-DNA, we performed dose titration experiments with drug and quantified cGAMP production using thin layer chromatography (TLC) (FIG. 2A). Reactions were performed in triplicate and normalized to no-inhibitor controls and fit by non-linear regression using Prism […]™ to determine the IC50 of each compound. Each compound yielded dose-response curves similar to HCQ but with different inhibitory activities (FIG. 2B). […] Strikingly, the computational predicted binding affinities of these anti-malaria drugs inversely correlated with the IC50 of anti-malarial drugs, validating the prediction of our computational analysis (FIG. 2D).
Initial characterization of enzyme activity was monitored in the presence of 250 μM ATP, 250 μM GTP, 0-500 μg/mL herring testes DNA, 1.4 μM cGAS, 3.3 nM ^32P-γ-ATP in a buffer composed of 40 mM Tris, 250 mM NaCl, 10 mM MgCl2, pH 7.5. Reactions were incubated for 1 hr at room temperature and subsequently spotted on PEI-cellulose TLC plates and developed using a solvent composition 1:1.5 [v/v] saturated NH4SO4 and 1.5 M KH2PO4 [pH 3.6]. For inhibition assays, compounds were characterized in the presence of the above reaction contents at fixed 100 μg/mL htDNA. TLC plates were exposed to a phosphor-storage screen and imaged using a TYPHOON™ imaging system. (See FIGS. 7-16).
cGAS activity was monitored in the presence of 250 μM ATP, 250 μM GTP, 0-500 μg/ml herring testes DNA. 1.4 μM cGAS. and 3.3 nM [^32P]-ATP in Tris buffer (pH 7.5). After incubation for 1 h at room temperature, samples were spotted on PEI-cellulose Thin Layer Chromatograph (TLC) plates, and developed using a solvent composed of 1:1.5 [v/v] saturated NH4SO4 and 1.5 M KH2PO4 [pH 3.6]. For inhibition assays, compounds were characterized in the presence of the above reaction contents at fixed 100 μg/ml HT DNA. TLC plates were exposed to a phosphor-storage screen and imaged using a TYPHOOON™ imaging system. (FIG. 7).
Thin Layer Chromatograph (TLC) assay was used for the quantification of cGAS inhibition by compounds X5/X6/X7. Reactions were normalized to no-inhibitor controls and fit by non-linear regression using Prizm […]™ to determine the IC50 of each compound. (FIG. 7).

In another data set the test system is 3 cell lines. The data set is described as follows: Toxicity, average of 3 cell lines @ 50% cell death. It is filed as cell-based.
Where [2] appears, read: THP-1, THP1 cells transfected with herring testis DNA, 16 hours, QPCR.
[3] abbreviates: cGAS, fixed 100 μg/mL herring testes DNA, TLC of cGAMP, read-out: IC50 Enzyme Assay.

Entries after “also recorded” stand apart in the source; their conditions may differ. Read-outs that look alike come from different tables or passages of the source.

T1 sequence (Q8N884 whole entry, species assumed, one chain of several): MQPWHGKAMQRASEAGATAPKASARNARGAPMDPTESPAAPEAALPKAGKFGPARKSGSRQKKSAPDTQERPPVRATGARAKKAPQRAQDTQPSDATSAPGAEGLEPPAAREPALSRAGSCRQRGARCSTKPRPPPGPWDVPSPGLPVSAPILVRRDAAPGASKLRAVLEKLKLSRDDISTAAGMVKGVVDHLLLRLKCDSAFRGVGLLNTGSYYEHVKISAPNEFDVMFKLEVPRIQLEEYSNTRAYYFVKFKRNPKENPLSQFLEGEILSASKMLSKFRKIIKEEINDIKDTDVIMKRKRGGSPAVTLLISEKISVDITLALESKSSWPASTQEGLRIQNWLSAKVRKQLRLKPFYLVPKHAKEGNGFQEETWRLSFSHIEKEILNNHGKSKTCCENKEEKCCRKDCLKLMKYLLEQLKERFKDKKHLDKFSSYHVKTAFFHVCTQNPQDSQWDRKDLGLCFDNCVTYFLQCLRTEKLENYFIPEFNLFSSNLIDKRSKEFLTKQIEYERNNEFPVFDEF
T2 sequence (Q8N884 whole entry, species assumed): as the sequence (Q8N884 whole entry, species assumed, one chain of several) above
Sequence of STING (Q86WV6 whole entry H232R, species assumed): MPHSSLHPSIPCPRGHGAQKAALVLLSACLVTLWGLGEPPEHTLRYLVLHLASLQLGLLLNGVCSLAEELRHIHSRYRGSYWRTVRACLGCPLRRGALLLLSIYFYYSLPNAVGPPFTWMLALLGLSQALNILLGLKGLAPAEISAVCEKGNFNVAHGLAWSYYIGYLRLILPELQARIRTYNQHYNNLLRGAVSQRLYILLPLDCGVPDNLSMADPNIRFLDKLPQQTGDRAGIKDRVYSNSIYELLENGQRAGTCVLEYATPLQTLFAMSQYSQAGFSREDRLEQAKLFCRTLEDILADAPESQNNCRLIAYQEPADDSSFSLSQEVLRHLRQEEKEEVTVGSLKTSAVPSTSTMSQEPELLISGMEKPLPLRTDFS

Regarding `CCN(CCO)CCCC(C)Nc1ccnc2cc(Cl)ccc12` (stereo not drawn) [HCQ, hydroxychloroquine], at dsDNA/cGAS complex, the “effect on dsDNA/cGAS binding (gel shift)” value is “blocked dsDNA/cGAS binding; also recorded: inhibits the DNA binding to cGAS”. For the same compound, at STING, the “effect on c-di-AMP binding to STING” value is recorded as “not c-di-AMP to STING”. The IC50 in data set [1] (setting [2]) lay within 3 to 25 µM. The “effect on Lipofectamine transfection efficiency (IL-1b production)” value with THP1 cells is reported as “did not interfere with the Lipofectamine transfection efficiency”. Moreover, at cGAS, the “inhibitory activity on cGAMP production, in words” value (“inhibitory activity” below) is “intermediate inhibitory activities”.
In the case of `C=C[C@H]1CN2CC[C@H]1C[C@H]2[C@H](O)c1ccnc2ccc(OC)cc12` [compound 5, Quinine], in data set [1], the “inhibition of IFNb production, effectiveness in words” value is given as “less effective by about one log order”. The “inhibitory activity” value on cGAS is listed as “very low inhibitory activity”. Further, the IC50 on cGAS (setting [3]) was 2000 µM.
`COc1ccc2nc3cc(N)ccc3c(N(C)CCCN(C)Cc3ccncc3)c2c1` [compound 14] yielded a Toxicity with 3 cell lines of 27.4 µM. Also, the IC50 on cGAS (setting [3]) amounted to 23 µM.
`CCN(CC)CCCC(C)Nc1c2ccc(Cl)cc2nc2ccc(OC)cc12` (stereo not drawn) [compound 4, quinacrine] registered a Toxicity in the data set with 3 cell lines of 33.0 µM. In addition, on cGAS (setting [3]), the IC50 came out at 13 µM.
Take `CCN(CC)CCCC(C)Nc1ccnc2cc(Cl)ccc12` (stereo not drawn) [compound 2, Chloroquine]: the IC50 in data set [1] (THP-1, 16 h) was 3 to 25 µM; on cGAS (setting [3]), 850 µM. Besides, the “inhibitory activity” value on cGAS is given as “intermediate inhibitory activities”.
In the data set with 3 cell lines, `NCCCCNc1c2ccccc2nc2ccccc12` [compound 21] registered a Toxicity of 16.0 µM. The IC50 at cGAS (setting [3]) came to 1 µM.
For the compound `COc1ccc2nc3cc(Cl)ccc3c(N)c2c1` [compound 6, 9-amino-6-chloro-2-methoxyacridine], the IC50 in data set [1] (THP-1, 16 h) lay in the range of 3 to 25 µM. On cGAS, the IC50 came to 32 µM and the “inhibitory activity” value was “relatively potent inhibitors”.
In the case of `O=C(O)[C@H](Cc1c[nH]c2ccccc12)Nc1c2ccccc2nc2ccccc12` [compound 9], at cGAS (setting [3]), the half-maximal inhibitory concentration (IC50) is above 650 µM.
Same read-out and setting: the figure for `O=[N+]([O-])c1cccc(Nc2c3ccccc3nc3ccccc23)c1` [compound 11] is above 650 µM.
As for `CN(C)c1ccc2cc3ccc(N(C)C)cc3nc2c1` [compound 20], the IC50 on cGAS (setting [3]) turned out to be 8 µM.
For `COc1cc(NS(C)(=O)=O)ccc1Nc1c2ccccc2nc2ccccc12` [compound 12], the half-maximal inhibitory concentration (IC50) at cGAS (setting [3]) was above 650 µM.
Same read-out and setting: the figure for `CCOC(=O)c1ccc(Nc2c3ccccc3nc3ccccc23)cc1` [compound 10] is above 650 µM.
`CCOc1ccc2nc3cc(N)ccc3c(N)c2c1` [compound 7]: at cGAS (setting [3]), the IC50 amounted to 10 µM.
For the compound `COc1ccc2nc3cc(N)ccc3c(N(C)CCCN(C)Cc3ccco3)c2c1` [compound 15, 9-(N-furfuryl-N-methyl-N′-methyl-1′,3′-propanediamine)-3-amino-7-methoxyacridine], the IC50 at cGAS (setting [3]) turned out to be 35 µM.
For `CCN(CCO)CCCC(C)Nc1ccnc2cc(Cl)ccc12` (stereo not drawn) [compound 1, hydroxychloroquine], the IC50 at cGAS (setting [3]) came to 350 µM.
On to `CCN(CC)CCCC(C)Nc1c2ccc(Cl)cc2nc2ccc(OC)cc12` (stereo not drawn) [Quinacrine, quinacrine], for which the IC50 in data set [1] (setting [2]) was in the range of 3 to 25 µM. For the same compound, on cGAS, the “inhibitory activity” value is on record as “relatively potent inhibitors”.
`COc1cc(NC(C)CCCN)c2ncccc2c1` (stereo not drawn) [compound 3, Primaquine]: the “inhibition of IFNb production, effectiveness in words” value in data set [1] is recorded as “less effective by about one log order”. In addition, at cGAS, the “inhibitory activity” value is “very low inhibitory activity”. Also, the IC50 at cGAS (setting [3]) worked out at 850 µM.
Regarding `COc1ccc2nc3cc(N)ccc3c(N(C)CCCN(C)Cc3ccccc3)c2c1` [compound 13, 9-(N-benzyl-N-methyl-N′-methyl-1′,3′-propanediamine)-3-amino-7-methoxyacridine], the Toxicity with 3 cell lines was determined as 33.1 µM. Also, the IC50 at cGAS (setting [3]) is 18 µM.
As for `Nc1c2ccccc2nc2ccccc12` [compound 8], the IC50 at cGAS (setting [3]) was 5 µM.

For orientation: IC50 means the concentration needed to halve the response being measured.
